This is an account of results in patent publication US20230048888A1, “USE OF TRIAZOLOTRIAZINE DERIVATIVE IN TREATMENT OF DISEASES” (ZHEJIANG VIMGREEN PHARMACEUTICALS, LTD., priority 2019, published 2023).

Data set [1] is described as follows: Pharmacokinetics of Compound 40 and benzene sulfonate thereof in ICR mice, PO. As to conditions: mouse, in vivo, PO 100 mg/kg (based on free base), 40% Hp-β-CD.
In the next data set the test system is CT26 cells. Put plainly: CT26 murine colon cancer homotransplantation model. The class given is in vivo, BALB/c mice. How it is done: The CT26 murine colon cancer homotransplantation model is a classic pharmaceutical effect evaluation model for colon cancer. It is constructed by subcutaneously inoculating CT26 to BALB/c mice. The test compounds were administrated to evaluate their inhibitory effects on tumor growth in the model.
CT26 cells were cultured in an RPMI1640 culture solution containing 10% fetal bovine serum. The CT26 cells in the exponential growth phase were collected and resuspended in PBS to a suitable concentration for subcutaneous tumor inoculation in mice.
Female mice were subcutaneously inoculated with 5×10^5 CT26 cells on the right side. The day of inoculation was defined as Day 0. On the second day (Day 1) of […] cell inoculation, the mice were administered randomly according to body weight.
(§1) Tumor proliferation rate, T/C %, was a percentage ratio of tumor volume or tumor weight between the treatment group and the control group at a certain time point. It was calculated with a formula was as follows:
(§2) T/C %=TTV/CTV×100% (TTV (TTV: the average TV of the treatment group at a specific time point;

Data set [2] relates to murine colon cancer MC38 cell line. Nature of the data set: Subcutaneous homotransplantation of murine colon cancer MC38 cell line in C57BL/6 female mice. Conditions: for T/C (%) / TGI (%) / Tumor volume: Day 22. The class given is in vivo. On the procedure: The MC38 mouse colon cancer cell model is a commonly used model for verifying a pharmaceutical effect on the colon cancer. It is mostly used to study the occurrence and metastasis direction of the colorectal cancer, and has become a common approach to the pharmaceutical effect verification for tumors. The anti-tumor effect of the subcutaneous homotransplantation of a test drug in a murine colon cancer MC38 cell line of C57BL/6 female mouse model was evaluated.
MC38 cells were cultured in a DMEM culture solution containing 10% fetal bovine serum. The MC38 cells in the exponential growth phase were collected and resuspended in PBS to a suitable concentration for subcutaneous tumor inoculation in mice.
Female mice were subcutaneously inoculated with 1×10^6 MC38 cells on the right side. The day of inoculation was defined as Day 0. On the second day (Day 1) of […] cell inoculation, the mice were administered randomly according to body weight. The solution of Compound 22 was prepared at 3 mg/mL and 10 mg/mL respectively for later use.
Formula for calculating tumor volume: tumor volume (mm^3)=½×(a×b^2) (a representing a long diameter and b representing a short diameter);
as §1, §2
All experimental results were represented as the average tumor volume±SEM (mean standard error). Statistical analysis between different groups were conducted to select the optimal drug treatment point (usually after the last dosage). A comparison was conducted with the independent sample T test method to determine if there is a significant difference in tumor volume between the treatment group ad the control group. All data were analyzed with SPSS 18.0. P<0.05 indicated a significant difference.

Another data set has as its system A20 tumor cells. Nature of the data set: A20 murine lymphoma (B lymphocytes) homotransplantation model. The class given is in vivo, BALB/c mice. As to conditions: for TGI (%): 50 mg/kg p.o. QD. On the procedure:
A20 murine lymphoma (B lymphocyte) homotransplantation model is a classic pharmaceutical effect evaluation model for B lymphocyte cancer. It was constructed by subcutaneously inoculating homogeneous A20 tumor cells into the right ribs of female BALB/c mice by the same species. The test compounds were administrated to evaluate their inhibitory effects on tumor growth in the model.
A20 tumor cells were cultured in an RPMI 1640 medium containing inactivated 10% fetal bovine serum, 100 U/ml penicillin, 100 μg/ml streptomycin and 0.05 mM 2-mercaptoethanol in an incubator at 37° C. in the presence of 5% CO2; and after the cells grew all over, the tumor cells were divided and passaged in respective flasks every 3 to 4 days. The tumor cells in the logarithmic growth phase were used for in vivo inoculation of tumors.
The A20 tumor cells resuspended in a serum-free RPMI 1640 culture solution were inoculated subcutaneously at 3×10^5/100 μl to the right ribs of experimental animals. A total of 30 animals were inoculated. On the first day after tumor cell inoculation, 24 animals with a uniform body weight were selected in terms of body weight, and were grouped for dosage, with 12 animals in each group. The specific dosage regimen was carried out according to the experimental design.
Tumor volume: the tumor volume was measured 3 times a week with a vernier caliper, and the long and short diameters of the tumor were measured. The volume was calculated with a formula as follows:
volume=0.5×long diameter×short diameter^2.
Tumor growth inhibition rate (TGI, %)=(1−T/C)×100,
T/C(%)=(average tumor volume of treatment groups on the current day-average tumor volume of treatment groups on the initial day D0)/(average tumor volume of the control group on the current day-average tumor volume of the control group on the initial day D0)×100.
Statistical analysis of tumor volume was carried out between groups by the SPSS T-test.

Data set [3] in a line: Pharmacokinetic evaluation of Compound 22 in female BALB/c mice in different vehicles. The class given is in vivo. Conditions: mouse, plasma, po, 100 mg/kg, 100 mg/kg p.o. single; for half-life: read-out: T½ (converted). How it is done: BALB/c mice, female, 7-9 weeks old (the age of mice at the start of the experiment), weight: 19.2-22.1 g, […] (34 mice plus another 10 surplus mice). They were purchased from Shanghai Lingchang Biotechnology Co., Ltd. (LC), with animal certificate number: 2013001835211. Rearing environment: SPF level.
After single administration, plasma was collected from each group at 0.25 h, 0.5 h, 1 h, 2 h, 4 h, 6 h, 8 h and 24 h, with 3 mice at each time point, and the experiment was terminated after 24h. 10 remaining mice were used to collect blank plasma.

Where [4] appears, read: 30 mg/kg p.o. QD combined with Anti-PD-1 100 μg/animal i.p.
The mark [5] stands for this setting: Group 1, vehicle 40% PEG400/60% water.
Setting [6] is: Group 2, vehicle 40% (2-hydroxypropyl)-β-cyclodextrin.

For the molecule `Cn1nnc(-c2ccc(CCNc3nc(N)n4nc(-c5ccco5)nc4n3)cc2)n1` [Compound 40, N5-(4-(2-methyl-2H-tetrazol-5-yl)phenethyl)-2-(furan-2-yl)-[1,2,4]triazolo[1,5-a][1,3,5]triazine-5,7-diamine], in data set [1], the AUC(0-t) is 11900 ng·h/mL, the Cmax turned out to be 2900 ng/mL and the Tmax turned out to be 0.5 h. For the same molecule, the AUC(0-inf) in data set [1] (read-out: AUCINF—pred) is 12100 ng·h/mL. The half-life in data set [1] (read-out: T½ (converted)) was 4.27 h.

Take `Nc1nc(NCCc2ccc(NC3COC3)cc2)nc2nc(-c3ccco3)nn12` [Compound 22, 2-(furan-2-yl)-N5-(4-(oxetan-3-ylamino)phenethyl)-[1,2,4]triazolo[1,5-a][1,3,5]triazine-5,7-diamine]: the “T/C (%)” value was 81% in the data set on CT26 cells (Day 26, 100 mg/kg p.o. QD); 66% in data set [2] (30 mg/kg p.o. QD); 15% in data set [2] (setting [4]); 52% in data set [2] (100 mg/kg p.o. QD). In addition, the “TGI (%)” value in the data set with CT26 cells (Day 26, 100 mg/kg p.o. QD) was 19%; in data set [2] (30 mg/kg p.o. QD), 34%; in data set [2] (setting [4]), 85%; in data set [2] (100 mg/kg p.o. QD), 48%; in the data set with A20 tumor cells (Day 6 after tumor inoculation) it was 11.9%; in the data set with A20 tumor cells (Day 8) it was 8.4%. The “TGI (%)” value turned out to be 7.0% in the data set on A20 tumor cells (Day 10); 16.5% in the data set on A20 tumor cells (Day 13); 29.4% in the data set with A20 tumor cells (Day 15); 32.6% in the data set with A20 tumor cells (Day 17); 28.5% in the data set with A20 tumor cells (Day 20); 36.4% in the data set on A20 tumor cells (Day 22). Further, the “TGI (%)” value in the data set on A20 tumor cells (Day 24) was 35.6%. Also, the Tumor volume with CT26 cells (Day 26, 100 mg/kg p.o. QD, in mm³) is given as 1988.56 ± 325.70; in data set [2] (30 mg/kg p.o. QD), 1205.60 ± 259.65 mm^3; in data set [2] (setting [4]), 268.89 ± 57.10 mm^3; in data set [2] (100 mg/kg p.o. QD), 951.28 ± 116.30 mm^3. For the same molecule, the “Clinical abnormalities during the dosage” value in the data set on CT26 cells (p.o. QD × 25 days) and in the data set on A20 tumor cells (50 mg/kg p.o. QD 24 days) was “no obvious clinical abnormalities were observed” in each case. Moreover, the “Animal death / changes in body weight” value in data set [2] (alone or combined with anti-PD-1 antibody) is “no animal death or significant changes in body weight”. The AUC(0-inf) worked out at 16100 ng·h/mL in data set [3] (setting [5]) and 28500 ng·h/mL in data set [3] (setting [6]). In addition, the AUC(0-t) was found to be 15900 ng·h/mL in data set [3] (setting [5]) and 28400 ng·h/mL in data set [3] (setting [6]). For the same molecule, the Cmax was 2080 ng/mL in data set [3] (setting [5]) and 5580 ng/mL in data set [3] (setting [6]). In addition, the Tmax is 1 h in data set [3] (setting [5]) and 0.5 h in data set [3] (setting [6]). Besides, the values for the half-life in data set [3] (setting [5]) and in data set [3] (setting [6]) were 3.04 h and 2.66 h, respectively.
